Experimental data from BindingDB's records for doi:10.1021/cb600311v (University of California San Francisco, 2006).

Legend:
[1] = molecular target: T1, Thyroid hormone receptor alpha (Homo sapiens, UniProt P10827); assay: Competition Binding Assay
T1 sequence (P10827 whole entry): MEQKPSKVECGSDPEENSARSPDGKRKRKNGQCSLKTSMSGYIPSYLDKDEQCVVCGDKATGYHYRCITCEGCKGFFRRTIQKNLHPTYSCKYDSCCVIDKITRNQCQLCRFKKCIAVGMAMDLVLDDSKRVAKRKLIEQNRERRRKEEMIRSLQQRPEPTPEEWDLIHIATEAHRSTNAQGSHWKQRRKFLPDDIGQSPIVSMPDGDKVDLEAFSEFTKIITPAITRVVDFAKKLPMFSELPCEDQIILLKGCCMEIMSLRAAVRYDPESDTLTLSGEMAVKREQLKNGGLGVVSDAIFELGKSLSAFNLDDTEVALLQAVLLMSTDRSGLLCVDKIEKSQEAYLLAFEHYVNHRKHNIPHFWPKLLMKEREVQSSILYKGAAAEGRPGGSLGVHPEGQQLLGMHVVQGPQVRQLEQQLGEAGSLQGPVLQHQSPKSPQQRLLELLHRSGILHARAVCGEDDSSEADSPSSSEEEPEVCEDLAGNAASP
Text: (§1) Thyroid hormone competitive binding assay using TNT T7 quick-coupled transcription translation system from promega.

[2] = molecular target: T2, Thyroid hormone receptor beta (Homo sapiens, UniProt P10828); assay: Competition Binding Assay
T2 sequence (P10828 whole entry): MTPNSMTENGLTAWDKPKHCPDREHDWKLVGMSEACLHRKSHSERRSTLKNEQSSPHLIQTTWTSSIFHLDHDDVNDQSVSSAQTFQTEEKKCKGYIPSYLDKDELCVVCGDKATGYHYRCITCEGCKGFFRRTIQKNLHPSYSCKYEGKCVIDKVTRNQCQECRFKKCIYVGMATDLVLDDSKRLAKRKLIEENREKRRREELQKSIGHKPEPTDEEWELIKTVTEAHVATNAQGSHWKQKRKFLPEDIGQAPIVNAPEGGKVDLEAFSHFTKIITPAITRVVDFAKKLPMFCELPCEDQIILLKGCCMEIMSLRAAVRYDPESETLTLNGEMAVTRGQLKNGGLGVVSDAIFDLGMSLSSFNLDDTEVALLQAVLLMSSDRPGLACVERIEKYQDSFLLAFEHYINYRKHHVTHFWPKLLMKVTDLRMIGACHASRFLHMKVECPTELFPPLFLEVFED
Text: as §1

[3] = molecular target: T1, Thyroid hormone receptor alpha; assay: Transactivation Assay in U2OS cells
Text: TRE-driven dual-luciferase reporter assay in human bone osteosarcoma epithelial (U2OS) cell line.

Molecule `CC(C)c1cc(Oc2c(I)cc(Cc3[nH]c(=O)[nH]c3O)cc2I)ccc1O` has a Kd [1] of 1.2 nM, a Kd [2] of 1.7 nM and an EC50 [3] of 34 nM.

Work on `Cc1cc(Cc2[nH]c(=O)[nH]c2O)cc(C)c1Oc1ccc(O)c(C(C)C)c1` [CO22] yielded a Kd [1] of 286 nM, a Kd [2] of 280 nM and an EC50 [3] of 3870 nM.
